Results as given in patent US8252833B2, “Benzo (f) isoindol-2-ylphenyl acetic acid derivatives as EP4 receptor agonists” (Glaxo Group Limited, priority 2006, dated 2012).

Experiments:
[1] = Oral pharmacokinetics in the rat; conditions: in vivo, read-out: oral pharmacokinetic half life (converted)
[2] = target: T1, recombinant human prostanoid EP4 receptor (Homo sapiens, UniProt P35408); test: In vitro cAMP assay in HEK-EP4 cells; assay type: cell-based
T1 construct: expressed in transfected cells; host or cells: HEK-293(T) cells (HEK-EP4, G418 selected)
Procedure: Cells were grown as a monolayer culture in DMEM-F12/F12 containing glutamax II (Gibco) and supplemented with 10% foetal bovine serum (Gibco) and 0.4 mg.ml-1 G418. HEK-EP4 cells were pre-treated 24 hr and 30 mins prior to the experiment with 10 μM indomethacin and harvested using Versene containing 10 μM indomethacin. The cells were resuspended in assay buffer (DMEM:F12, 10 μM indomethacin and 200 μM IBMX) at 1×10^6 cells per ml and incubated for 20 min at 37° C. Thereafter, 50 μl of cells were added to 50 μl agonist (compound of Formula (I)) and incubated at 37° C. for 4 minutes before stopping reactions with 1000 of 1% triton X-100. cAMP levels in the cell lysates were determined using a competition binding assay. In this assay the ability of cell lysates to inhibit 3H-cAMP (Amersham) binding to the binding subunit of protein kinase A was measured and cAMP levels were calculated from a standard curve. The data for each compound were expressed as a % of the response to a 10 nM maximal concentration of the standard agonist PGE2. For each compound the maximal response and concentration of compound causing 50% of its maximal response were calculated. Intrinsic activity is expressed relative to the maximal response to PGE2. Unless stated, reagents were purchased commercially from Sigma.

[3] = tested on: FCA induced hypersensitivity; test: FCA induced hypersensitivity in the rat, weight-bearing readout; assay type: in vivo; conditions: for Effect of low dose when administered alone: low (ED20) doses alone, p.o. (FIG. 1); for ED20 dose: p.o., reversal of FCA induced hypersensitivity
Procedure: • At the start of the study, naïve weight bearing readings were taken. The hypersensitivity to pain was measured using the Rat incapacitance tester (Linton instruments). • All male rats (RH strain, 180-220 g) then received an intraplantar injection of 100 ul of FCA (Freund's complete adjuvant) into the left hind paw. The ECA was sonicated for 15 minutes prior to use. • 24 hours after administration of the FCA, pre-dose weight bearing readings were taken. All animals were then ranked and randomised for dosing according to their FCA window (predose difference in grams—naïve difference in grams). Rats with FCA window less than 30 were excluded from the study. • Animals were then dosed orally according to ranking and randomisation. Two studies were carried out as follows: • In the first study the ED20 doses of Example 9 and paracetamol were combined using the following protocol, • (1) Vehicle (1% methylcellulose) p.o. • (2) Paracetamol (60 mg/kg) p.o.* • (3) Example 9 (0.1 mg/kg) p.o.* • (4) Example 9 (0.1 mg/kg)+Paracetamol (60 mg/kg) p.o.** • (5) Celecoxib (10 mg/kg) p.o. • *ED20 dose • **Example 9 was dosed initially followed by paracetamol 30 minutes later. • In the second study a fixed dose ratio combination with Example 9 and paracetamol was completed using the following protocol, • (1) Vehicle (1% methylcellulose) p.o.+Vehicle (1% methylcellulose) p.o. • (2) Example 9, 0.003 mg/kg p.o.+Paracetamol, 1.8 mg/kg p.o. • (3) Example 9, 0.01 mg/kg p.o.+Paracetamol, 6 mg/kg p.o. • (4) Example 9, 0.03 mg/kg p.o.+Paracetamol, 18 mg/kg p.o. • (5) Example 9, 0.1 mg/kg p.o.+Paracetamol, 60 mg/kg p.o. • (6) Vehicle (1% methylcellulose) p.o.+Celecoxib, 10 mg/kg p.o. • Animals were assessed in the weight bearing apparatus 1 hour after the dose of paracetamol. • The study was blind and randomised by FCA window using a Latin square method. Preparation Details • All compounds were ground using a pestle and mortar prior to adding the vehicle (1% methylcellulose). Dose volume 5 ml/kg. • All doses were sonicated and stirred before administration. • In this study a positive control was also tested (Celecoxib). […] Statistical Analysis • % reversals were calculated by using the naïve, pre-dose and post dose values as follows: % Reversal=[(Pre-dose−Post-dose)/(Pre-dose−Naïve)]×100. • Graphs and ED50 values were calculated using Prism3. • Statistical analysis was carried out using ANOVA and Fischer LSD test from statistical package Statistica 6. • Synergy was statistically calculated using the synergy macro. The logED50 values and the Standard errors for the individual molecules and the combination study are obtained from Statistica 6 and put into the macro. The fixed dose ratio is specified and the macro then calculates whether the combination was statistically synergistic. It compares the combination data to the theoretical addition of the individual compounds. Results: Percentage Reversal of the Established FCA-Induced Hypersensitivity: […]

T1 sequence (P35408 whole entry): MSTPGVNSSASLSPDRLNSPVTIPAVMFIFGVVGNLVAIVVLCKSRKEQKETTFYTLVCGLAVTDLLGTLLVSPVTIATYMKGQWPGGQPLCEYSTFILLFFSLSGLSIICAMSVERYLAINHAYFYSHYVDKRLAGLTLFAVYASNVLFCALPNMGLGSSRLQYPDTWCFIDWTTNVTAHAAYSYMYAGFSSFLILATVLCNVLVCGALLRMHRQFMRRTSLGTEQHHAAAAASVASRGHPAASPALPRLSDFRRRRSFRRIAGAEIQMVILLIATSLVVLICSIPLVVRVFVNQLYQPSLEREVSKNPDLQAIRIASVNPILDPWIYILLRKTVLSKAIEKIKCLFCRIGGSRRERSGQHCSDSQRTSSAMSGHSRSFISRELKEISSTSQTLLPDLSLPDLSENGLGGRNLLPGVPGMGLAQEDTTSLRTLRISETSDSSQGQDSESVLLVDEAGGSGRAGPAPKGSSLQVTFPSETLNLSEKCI

| Structure (SMILES) | half-life [1] | EC50 [2] | Emax ([2]; maximal response relative to the maximal response to PGE2 (10 nM), read-out: average intrinsic activity) | EC50 at 3 mg/kg ([3]; Rattus norvegicus) | reversal of eFCA-induced hypersensitivity ([3]; dosed alone at 3 mg/kg, rat) | Effect of low dose when administered alone [3] | ED20 dose ([3]; rat) |
| --- | --- | --- | --- | --- | --- | --- | --- |
| CCOc1c2c(c(OCC)c3ccccc13)C(=O)N(c1ccc(CC(=O)O)c(F)c1)C2 [Example 9, {4-[4,9-Bis(ethyloxy)-1-oxo-1,3-dihydro-2H-benzo[f]isoindol-2-yl]-2-fluorophenyl}acetic acid] | 7.6 h | 39.8 nM | 68% | 600 nM | 80% | ineffective | 0.1 mg/kg |
| CC(=O)Nc1ccc(O)cc1 [Paracetamol, paracetamol, reference compound] |  |  |  |  |  | ineffective | 60 mg/kg |
